What was measured:
Test in all cases: normalised response (% of control), CellTiter-Glo; higher = more viable cells (100 = DMSO, 0 = benzethonium chloride kill control)
Settings in all cases: incubation time: 72 h
MDA-MB-436 = tested on: MDA-MB-436
Outline: (§1)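 A 20 µl suspension of breast cancer cells was seeded into each well of 384-well plates containing compound at 5 concentrations in 10-fold steps over a compound-specific 10,000-fold range. After 72 h incubation, CellTox Green fluorescence (485/520 nm) was read first, and CellTiter-Glo luminescence was read after 10 min at room temperature. Each plate was normalised against 0.1 % DMSO (100) and a positive kill control (0), and each value is the normalised signal at one concentration.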

CAL-85-1 = tested on: CAL-85-1
Outline: as §1

MFM-223 = tested on: MFM-223
Outline: as §1

DU-4475 = tested on: DU-4475
Outline: as §1

MDA-MB-453 = tested on: MDA-MB-453
Outline: as §1

CAL-148 = tested on: CAL-148
Outline: as §1

BT-549 = tested on: BT-549
Outline: as §1

MDA-MB-231 = tested on: MDA-MB-231
Outline: as §1

MDA-MB-468 = tested on: MDA-MB-468
Outline: as §1

CAL-51 = tested on: CAL-51
Outline: as §1

CAL-120 = tested on: CAL-120
Outline: as §1

MCF-10A = tested on: MCF-10A
Outline: as §1

SK-BR-3 = tested on: SK-BR-3
Outline: as §1

HCC1143 = tested on: HCC1143
Outline: as §1

HCC1937 = tested on: HCC1937
Outline: as §1

BT-474 = tested on: BT-474
Outline: as §1

HDQ-P1 = tested on: HDQ-P1
Outline: as §1

HCC1599 = tested on: HCC1599
Outline: as §1

Hs578T = tested on: Hs578T
Outline: as §1

SMILES | normalised response (MDA-MB-436) | normalised response (CAL-85-1) | normalised response (MFM-223) | normalised response (DU-4475) | normalised response (MDA-MB-453) | normalised response (CAL-148) | normalised response (BT-549) | normalised response (MDA-MB-231) | normalised response (MDA-MB-468) | normalised response (CAL-51) | normalised response (CAL-120) | normalised response (MCF-10A) | normalised response (SK-BR-3) | normalised response (HCC1143) | normalised response (HCC1937) | normalised response (BT-474) | normalised response (HDQ-P1) | normalised response (HCC1599) | normalised response (Hs578T)
CC(O)(CS(=O)(=O)c1ccc(F)cc1)C(=O)Nc1ccc(C#N)c(C(F)(F)F)c1 (stereo unspecified) [Bicalutamide] (1000 nM) | 107% | 107% | 102% | 99% | 95% | 102% | 97.6% | 112% | 110% | 101% | 108% | 110% | 109% | 101% | 100% | 110% | 108% | 120% | 95.6%
C/C(=C\c1csc(C)n1)[C@@H]1C[C@@H]2O[C@]2(C)CCC[C@H](C)[C@H](O)[C@@H](C)C(=O)C(C)(C)[C@@H](O)CC(=O)N1 [Ixabepilone] (100 nM) | 101% | 99.5% | 105% | 102% | 109% | 97.8% | 23.6% | 96.9% | 29.1% | 30.6% | 95.8% | 110% | 106% | 97.5% | 102% | 103% | 100% | 103% | 104%
Cc1cc(Nc2nc(N[C@@H](C)c3ncc(F)cn3)ncc2Cl)[nH]n1 [AZD1480] (100 nM) | 103% | 100% | 71.9% | 92.1% | 94.1% | 87.5% | 105% | 97.8% | 104% | 117% | 97.3% | 93.4% | 91.8% | 107% | 101% | 99.7% | 102% | 111% | 101%
CC(=O)[C@]1(O)Cc2c(O)c3c(c(O)c2[C@@H](O[C@H]2C[C@H](N)[C@H](O)[C@H](C)O2)C1)C(=O)c1ccccc1C3=O [Idarubicin] (100 nM) | 65.7% | 91% | 117% | 83.1% | 140% | 63.5% | 62.6% | 94.7% | 64.5% | 42.6% | 99.7% | 98.2% | 83.4% | 102% | 98% | 92.3% | 103% | 123% | 82.5%
COc1cc(Nc2c(C#N)cnc3cc(OCCCN4CCN(C)CC4)c(OC)cc23)c(Cl)cc1Cl [Bosutinib] (1000 nM) | 87.8% | 72.2% | 84% | 99.8% | 94.9% | 101% | 95.2% | 81.6% | 81% | 77.2% | 83.8% | 34.5% | 97.1% | 84.7% | 78.8% | 90.7% | 51.2% | 86.8% | 102%
CCNC(=O)CCC/C=C\C[C@@H]1[C@@H](/C=C/[C@@H](O)CCc2ccccc2)[C@H](O)C[C@@H]1O [Bimatoprost] (550 nM) | 108% | 96.3% | 90.3% | 98.3% | 93.2% | 93.6% | 104% | 97.1% | 95.2% | 102% | 97.1% | 102% | 88.7% | 92.5% | 94.5% | 96.7% | 95.4% | 105% | 93%
CNC(=O)c1ccccc1Sc1ccc2c(/C=C/c3ccccn3)n[nH]c2c1 [Axitinib] (1000 nM) | 97.8% | 117% | 59.8% | 102% | 87.9% | 103% | 103% | 111% | 83.9% | 59.4% | 95.3% | 95% | 90.5% | 94.6% | 88.6% | 102% | 96.8% | 82% | 93.8%
CCNC(=O)c1noc(-c2cc(C(C)C)c(O)cc2O)c1-c1ccc(CN2CCOCC2)cc1 [NVP-AUY922] (100 nM) | 44.6% | 20.5% | 43.4% | 0.04% | 32.3% | 27.6% | 41.1% | 24.6% | 28.7% | 14.8% | 47.5% | 15.2% | 35.8% | 36.8% | 28.7% | 25% | 23.5% | 71% | 39.1%
CO[C@@H]1[C@H](N(C)C(=O)c2ccccc2)C[C@H]2O[C@]1(C)n1c3ccccc3c3c4c(c5c6ccccc6n2c5c31)C(=O)NC4 [Midostaurin] (1000 nM) | 77.5% | 85.8% | 75.8% | 51.5% | 120% | 80.5% | 32.6% | 50.3% | 26.9% | 20.8% | 54% | 27.8% | 61.4% | 55.9% | 63.7% | 52.1% | 65.1% | 94.5% | 26.1%
CO[C@@]12[C@H](COC(N)=O)C3=C(C(=O)C(C)=C(N)C3=O)N1C[C@@H]1N[C@@H]12 [Mitomycin C] (1000 nM) | 88.3% | 95.6% | 90.1% | 96.9% | 97.9% | 90.9% | 65.7% | 97.4% | 86% | 60.2% | 94.1% | 93% | 96.7% | 99.4% | 95.2% | 90.2% | 97% | 84.2% | 102%
Cn1cc(C2=C(c3cn(C4CCN(Cc5ccccn5)CC4)c4ccccc34)C(=O)NC2=O)c2ccccc21 [Enzastaurin] (1000 nM) | 109% | 109% | 97.5% | 106% | 96.1% | 104% | 95.8% | 100% | 96.3% | 74.7% | 103% | 91.6% | 97.7% | 92.4% | 98.4% | 93.1% | 91.2% | 95.8% | 104%
COc1ccc(S(=O)(=O)Nc2cccnc2Nc2ccc(O)cc2)cc1 [ABT-751] (1000 nM) | 38.7% | 34.7% | 69.3% | 81.6% | 54.8% | 87.2% | 48.9% | 63.6% | 36.9% | 104% | 60.9% | 84.4% | 36.1% | 67.3% | 77.8% | 63.8% | 71.1% | 43.5% | 45.6%
CC(C)(C)NC(=O)[C@H]1CC[C@H]2[C@@H]3CC[C@H]4NC(=O)C=C[C@]4(C)[C@H]3CC[C@]12C [Finasteride] (1000 nM) | 108% | 95% | 103% | 96.8% | 103% | 91.8% | 90.7% | 95.2% | 104% | 94.6% | 106% | 104% | 102% | 96.6% | 99.6% | 98.9% | 105% | 113% | 96.6%
C=CCn1c(=O)c2cnc(Nc3ccc(N4CCN(C)CC4)cc3)nc2n1-c1cccc(C(C)(C)O)n1 [MK1775] (1000 nM) | 30.8% | 18.7% | 41.2% | 65.6% | 50.1% | 12.2% | 21.2% | 23.6% | 43.4% | 18.5% | 47.3% | 47.6% | 14.4% | 43.2% | 39.6% | 33.3% | 35.9% | 7.3% | 30%
CC1(C)CCC(c2ccc(Cl)cc2)=C(CN2CCN(c3ccc(C(=O)NS(=O)(=O)c4ccc(N[C@H](CCN5CCOCC5)CSc5ccccc5)c(S(=O)(=O)C(F)(F)F)c4)cc3)CC2)C1 [Navitoclax] (1000 nM) | 95.3% | 90% | 85.8% | 85.9% | 80.9% | 78.5% | 92.5% | 49.2% | 82.8% | 90.8% | 67.8% | 97.8% | 85.5% | 82.9% | 83.4% | 58.1% | 73% | 97.3% | 93.1%
CC(C)C[C@H](NC(=O)[C@@H](COC(C)(C)C)NC(=O)[C@H](Cc1ccc(O)cc1)NC(=O)[C@H](CO)NC(=O)[C@H](Cc1c[nH]c2ccccc12)NC(=O)[C@H](Cc1cnc[nH]1)NC(=O)[C@@H]1CCC(=O)N1)C(=O)N[C@@H](CCCNC(=N)N)C(=O)N1CCC[C@H]1C(=O)NNC(N)=O [Goserelin] (1000 nM) | 93.8% | 98.2% | 99.6% | 96.3% | 106% | 93.1% | 98.6% | 100% | 94.3% | 100% | 106% | 96.5% | 94.3% | 92.3% | 98.2% | 101% | 101% | 106% | 99.4%
Cc1cn(-c2cc(NC(=O)c3ccc(C)c(Nc4nccc(-c5cccnc5)n4)c3)cc(C(F)(F)F)c2)cn1 [Nilotinib] (1000 nM) | 103% | 102% | 97.3% | 97.7% | 105% | 84.4% | 109% | 96.5% | 93% | 70.9% | 100% | 107% | 97.5% | 94% | 96.5% | 92.9% | 104% | 105% | 105%
Nc1ccn([C@@H]2O[C@H](CO)[C@@H](O)C2(F)F)c(=O)n1 [Gemcitabine] (100 nM) | 32.6% | 43.1% | 101% | 74.5% | 67.7% | 56% | 49.7% | 85% | 28.4% | 24.4% | 78.8% | 66.7% | 41.5% | 44.1% | 79.2% | 81.8% | 86% | 39% | 70%
O=C(CCCCCCC(=O)Nc1ccccc1)NO [Vorinostat] (1000 nM) | 89.6% | 93.7% | 91.6% | 86.5% | 61.2% | 90.6% | 100% | 85.4% | 69.4% | 72.2% | 85.9% | 104% | 89.5% | 90.2% | 85.2% | 89.4% | 85% | 98.9% | 95.8%

— the supplement of paper PMC4862054
